Laboratory results: paper PMC2074590 (British Journal of Cancer, 1996)
“Also recorded” adds a separate entry of the source.

Tests used:
[1] = test system: advanced breast cancer resistant to tamoxifen; assay: Tumour response to therapy, UICC criteria; format: in vivo, human; parameters: key to Response to 182780: PD: progressive disease; NC: no change; PR: partial response
Procedure: Bridsh Journal of Cancer (1996) 74, 300-308 ? […] The agent was administered as a monthly depot intramuscular injection. […] The study was approved by the ethics committees of each clinical centre. Patients were eligible for the study if they were post- menopausal and age less than 81 years, with histologically verified breast cancer. […] Patients were excluded if they had serious intercurrent disease, a WHO performance status of greater than 2, and a life expectancy of less than 3 months or had received previous cytotoxic chemotherapy for advanced breast cancer. […] Patients 5-19 received 250 mg month-1 i.m. from the outset. […] Tumour response to therapy was evaluated according to UICC criteria (Hayward et al., 1977). To qualify for the 'no change' category, tumour growth had to stabilise for more than 6 months (Howell et al., 1988; Robertson et al., 1989). Body weight was recorded at each monthly review in the majority of patients. […] The procedure was applied after solid base clean up of a diethyl ether/hexane extract of serum. The study limit of quantification was 0.68 ng ml-'. […] Gonadotrophins follicle-stimulating hormone and lutenising hormone (FSH and LH) and SHBG were measured by RIA in the Regional Radioimmunoassay Laboratory of the University Hospital of South Manchester. Prolactin was measured by immunoradiometric assay using reagents supplied by Netria. Total cholesterol levels were determined enzymatically using a commercially available reagent (Diamed, Switzerland). Triglyceride levels were determined by the glyceryl phosphate oxidase-peroxidase-antiperox- idase method using a commercially available kit (Boehringer Mannheim, Germany). High-density lipoprotein (HDL) cholesterol levels were measured after pretreatment of the serum samples with buffered magnesium phosphotungstate, which selectively precipitates low-density lipoprotein (LDL) cholesterol, very low-density lipoprotein (VLDL) cholesterol and chylomicrons, leaving HDL cholesterol in the super- natant. Serum levels of LDL cholesterol were calculated using the Friedewald equation (Friedewald et al., 1972). Endometrial assessment Endometrial thickness was measured in transverse section by transabdominal ultrasound using a Siemens Sonoline SL2 with a 3.5 MHz sector probe. Baseline and repeat scans at 3-6 monthly intervals were performed in five patients. […] Pharmacokinectic data were analysed using para- metric statistics. Data relating to body weight, serum gonadotrophin, SHBG and lipid levels were analysed using non-parametric statistics. The null hypothesis was rejected at a probability level of P<0.05. […] However, samples were not available between day 2 and day 8.

endometrium = assay: Endometrial assessment (transabdominal ultrasound thickness, histology); format: in vivo, human
Procedure: Bridsh Journal of Cancer (1996) 74, 300-308 ? […] The agent was administered as a monthly depot intramuscular injection. […] The study was approved by the ethics committees of each clinical centre. Patients were eligible for the study if they were post- menopausal and age less than 81 years, with histologically verified breast cancer. […] Patients were excluded if they had serious intercurrent disease, a WHO performance status of greater than 2, and a life expectancy of less than 3 months or had received previous cytotoxic chemotherapy for advanced breast cancer. […] Patients 5-19 received 250 mg month-1 i.m. from the outset. […] Tumour response to therapy was evaluated according to UICC criteria (Hayward et al., 1977). […] Body weight was recorded at each monthly review in the majority of patients. […] The study limit of quantification was 0.68 ng ml-'. […] Gonadotrophins follicle-stimulating hormone and lutenising hormone (FSH and LH) and SHBG were measured by RIA in the Regional Radioimmunoassay Laboratory of the University Hospital of South Manchester. Prolactin was measured by immunoradiometric assay using reagents supplied by Netria. Total cholesterol levels were determined enzymatically using a commercially available reagent (Diamed, Switzerland). […] Serum levels of LDL cholesterol were calculated using the Friedewald equation (Friedewald et al., 1972). […]

[2] = Body weight at monthly review; format: in vivo, human
Procedure: Bridsh Journal of Cancer (1996) 74, 300-308 ? […] The agent was administered as a monthly depot intramuscular injection. […] The study was approved by the ethics committees of each clinical centre. Patients were eligible for the study if they were post- menopausal and age less than 81 years, with histologically verified breast cancer. […] Patients were excluded if they had serious intercurrent disease, a WHO performance status of greater than 2, and a life expectancy of less than 3 months or had received previous cytotoxic chemotherapy for advanced breast cancer. […] Patients 5-19 received 250 mg month-1 i.m. from the outset. […] Tumour response to therapy was evaluated according to UICC criteria (Hayward et al., 1977). To qualify for the 'no change' category, tumour growth had to stabilise for more than 6 months (Howell et al., 1988; Robertson et al., 1989). Body weight was recorded at each monthly review in the majority of patients. […] The procedure was applied after solid base clean up of a diethyl ether/hexane extract of serum. The study limit of quantification was 0.68 ng ml-'. […] Gonadotrophins follicle-stimulating hormone and lutenising hormone (FSH and LH) and SHBG were measured by RIA in the Regional Radioimmunoassay Laboratory of the University Hospital of South Manchester. Prolactin was measured by immunoradiometric assay using reagents supplied by Netria. Total cholesterol levels were determined enzymatically using a commercially available reagent (Diamed, Switzerland). Triglyceride levels were determined by the glyceryl phosphate oxidase-peroxidase-antiperox- idase method using a commercially available kit (Boehringer Mannheim, Germany). High-density lipoprotein (HDL) cholesterol levels were measured after pretreatment of the serum samples with buffered magnesium phosphotungstate, which selectively precipitates low-density lipoprotein (LDL) cholesterol, very low-density lipoprotein (VLDL) cholesterol and chylomicrons, leaving HDL cholesterol in the super- natant. Serum levels of LDL cholesterol were calculated using the Friedewald equation (Friedewald et al., 1972). […]

[3] = test system: endometrial proliferation; parameters: method as in Thomas et al., 1993; conditions: short-term studies in women, at serum concentrations similar to the present study; ref Thomas et al., 1993; cited from earlier work

C[C@]12CC[C@@H]3c4ccc(O)cc4C[C@@H](CCCCCCCCC[S+]([O-])CCCC(F)(F)C(F)(F)F)[C@H]3[C@@H]1CC[C@@H]2O (stereo partly shown) [ICI 182780, 7a-[9(4,4,5,5,pentafluoropentyl-sulphinyl)nonyl]oestra-1 ,3,5,(10)-triene-3,17,B-diol]
Median duration of response ([1]; 13 responding patients): 25 months | Partial response rate ([1]; 19 patients): 37% | Progression rate ([1]; 19 patients): 31% | Patients responding (partial response + no change) ([1]; 19 patients, after progression on tamoxifen): 69% | No change response rate ([1]; 19 patients, stabilisation for more than 6 months): 32% | Duration of response ([1]; NC patient with 61 months adjuvant tamoxifen (A61, = patient 15), from Table III): ≥ 23 months | Patients still in remission and continuing treatment ([1]; after 30-33 months): five | Association between duration of treatment with tamoxifen and subsequent response ([1]; in vivo): no association | Responses in women who progressed while receiving tamoxifen for advanced breast cancer ([1]; in vivo): six of the nine | Responses in women who relapsed after tamoxifen as adjuvant therapy ([1]; in vivo): seven of the ten | Number of patients with progression ([1]; of 19 patients): 6 patients | Response to 182780 ([1]; patient 1 (donor kappa)): PD | Duration of response ([1]; patient 1, PD): < 2 months | Response to 182780 ([1]; patient 2 (donor eta)): NC | Duration of response ([1]; patient 2, NC): 29 months | Response to 182780 ([1]; patient 3 (donor mu)): PR | Duration of response ([1]; patient 3, PR): 12 months | Response to 182780 ([1]; patient 4 (donor lambda)): PD | Duration of response ([1]; patient 4, PD): < 2 months | Response to 182780 ([1]; patient 5 (donor sigma)): PR | Duration of response ([1]; patient 5, PR): 8 months | Response to 182780 ([1]; patient 6 (donor delta)): PR | Duration of response ([1]; patient 6, PR): 3 months | Response to 182780 ([1]; patient 7 (donor gamma)): PD | Duration of response ([1]; patient 7, PD): < 2 months | Response to 182780 ([1]; patient 8 (donor theta)): PR | Duration of response ([1]; patient 8, PR): 25 months | Response to 182780 ([1]; patient 9 (NT)): PD | Duration of response ([1]; patient 9, PD): < 2 months | Response to 182780 ([1]; patient 10 (donor iota)): PR | Duration of response ([1]; patient 10, PR, + = continuing): ≥ 33 months | Response to 182780 ([1]; patient 11 (donor epsilon)): PD | Duration of response ([1]; patient 11, PD): < 2 months | Response to 182780 ([1]; patient 12 (donor nu)): NC | Duration of response ([1]; patient 12, NC, + = continuing): ≥ 33 months | Response to 182780 ([1]; patient 13 (donor tau)): PD | Duration of response ([1]; patient 13, PD): < 2 months | Response to 182780 ([1]; patient 14 (donor xi)): PR | Duration of response ([1]; patient 14, PR, + = continuing): ≥ 32 months | Response to 182780 ([1]; patient 15 (donor omicron)): NC | Response to 182780 ([1]; patient 16 (donor rho)): PR | Duration of response ([1]; patient 16, PR): 25 months | Response to 182780 ([1]; patient 17 (donor zeta)): NC | Duration of response ([1]; patient 17, NC): 9 months | Response to 182780 ([1]; patient 18 (donor beta)): NC | Duration of response ([1]; patient 18, NC, + = continuing): ≥ 30 months | Response to 182780 ([1]; patient 19 (donor pi)): NC | Duration of response ([1]; patient 19, NC, + = continuing): ≥ 30 months | Time to objective disease progression in unresponsive patients ([1]; six patients unresponsive de novo): ≤ 2 months | Endometrial histology (endometrium; one patient, hysterectomy after 18 months on treatment): atrophic post-menopausal pattern with cystic change | Endometrial thickness / effect on endometrium (endometrium; serial ultrasound in five responding patients, up to 15 months): no apparent effect; also recorded: remained unchanged | Mean body weight (s.d.) ([2]; after 10 months, n = 9): 64.5 ± 17.2 kg | Mean body weight (s.d.) ([2]; after 16 months, n=9): 64.2 ± 18.3 kg | Change in body weight during treatment ([2]; baseline mean 63.8 kg (n=13)): no significant changes | Effect on endometrial proliferation [3]: inhibited endometrial proliferation
